Assay results taken from patent publication US4530998A, “2'-Deoxyoxanosine” (Zaidan Hojin Biseibutsu Kagaku KenkyuKai, priority 1983, dated 1985).
Values after ≈ are worked out from the molar mass of the structure shown.

Assays:
[1] = test system: Bacillus subtilis NRRLB-558; assay: Antibacterial spectrum (MIC) on 0.5% peptone agar; format: cell-based; details: NRRLB558
Source text: (§1) Calcd.: C:44.91, H:4.47, N:20.75, Found: C:44.78, H:4.51, N:20.89, Molecular formula: C10 H12 N4 O5 Molecular weight: 268. 2'-Deoxyoxanosine in accordance with the present invention had the following antibacterial spectrum on 0.5% peptone agar.
(§2) Antibacterial spectrum of 2'-deoxyoxanosine

Bacillus subtilis PCI219 = assay: Antibacterial spectrum (MIC) on 0.5% peptone agar; format: cell-based
Source text: as §1, §2

Candida albicans 3147 = assay: Antibacterial spectrum (MIC) on 0.5% peptone agar; format: cell-based
Source text: as §1, §2

[2] = test system: Corynebacterium bovis 1810; assay: Antibacterial spectrum (MIC) on 0.5% peptone agar; format: cell-based
Source text: as §1, §2

Escherichia coli K-12 = assay: Antibacterial spectrum (MIC) on 0.5% peptone agar; format: cell-based; details: K12
Source text: as §1, §2

Escherichia coli ML1628 = assay: Antibacterial spectrum (MIC) on 0.5% peptone agar; format: cell-based; details: Escherichia coli ML1628 (multiple resistant strain)
Source text: as §1, §2

Escherichia coli NIHJ = assay: Antibacterial spectrum (MIC) on 0.5% peptone agar; format: cell-based
Source text: as §1, §2

[3] = test system: Klebsiella pneumoniae PCI602; assay: Antibacterial spectrum (MIC) on 0.5% peptone agar; format: cell-based
Source text: as §1, §2

Microcuccus flavus FDA16 = assay: Antibacterial spectrum (MIC) on 0.5% peptone agar; format: cell-based
Source text: as §1, §2

Mycobacterium 607 = assay: Antibacterial spectrum (MIC) on 0.5% peptone agar; format: cell-based
Source text: as §1, §2

[4] = test system: Proteus mirabilis IFM OM-9; assay: Antibacterial spectrum (MIC) on 0.5% peptone agar; format: cell-based; details: IFMOM9
Source text: as §1, §2

Proteus rettgeri GN311 = assay: Antibacterial spectrum (MIC) on 0.5% peptone agar; format: cell-based; details: Providencia rettgeri
Source text: as §1, §2

Proteus rettgeri GN466 = assay: Antibacterial spectrum (MIC) on 0.5% peptone agar; format: cell-based; details: Providencia rettgeri
Source text: as §1, §2

Proteus vulgaris OX19 = assay: Antibacterial spectrum (MIC) on 0.5% peptone agar; format: cell-based
Source text: as §1, §2

[5] = test system: Pseudomonas aeruginosa A3; assay: Antibacterial spectrum (MIC) on 0.5% peptone agar; format: cell-based
Source text: as §1, §2

[6] = test system: Salmonella enteritidis 1891; assay: Antibacterial spectrum (MIC) on 0.5% peptone agar; format: cell-based; details: Salmonella enterica
Source text: as §1, §2

Salmonella typhi T-63 = assay: Antibacterial spectrum (MIC) on 0.5% peptone agar; format: cell-based; details: Salmonella enterica
Source text: as §1, §2

Sarcina luteus PCI1001 = assay: Antibacterial spectrum (MIC) on 0.5% peptone agar; format: cell-based
Source text: as §1, §2

Serratia marcescens = assay: Antibacterial spectrum (MIC) on 0.5% peptone agar; format: cell-based
Source text: as §1, §2

[7] = test system: Shigella dysenteriae JS11910; assay: Antibacterial spectrum (MIC) on 0.5% peptone agar; format: cell-based
Source text: as §1, §2

[8] = test system: Shigella flexneri 4bJS11811; assay: Antibacterial spectrum (MIC) on 0.5% peptone agar; format: cell-based
Source text: as §1, §2

Shigella sonnei JS11746 = assay: Antibacterial spectrum (MIC) on 0.5% peptone agar; format: cell-based
Source text: as §1, §2

[9] = test system: Staphylococcus aureus FDA209P; assay: Antibacterial spectrum (MIC) on 0.5% peptone agar; format: cell-based
Source text: as §1, §2

[10] = test system: Staphylococcus aureus Simth; assay: Antibacterial spectrum (MIC) on 0.5% peptone agar; format: cell-based
Source text: as §1, §2

leukemia L-1210 cells = assay: Cytotoxicity, growth inhibition of leukemia L-1210 cells; format: cell-based
[11] = Acute toxicity (LD50) in mice; format: in vivo; details: mouse, in vivo, iv
mice = assay: Acute toxicity (LD50) in mice; format: in vivo; details: i.v., in words
gram-negative bacteria = assay: Antibacterial (growth-inhibitory) activity, gram-negative bacteria; format: cell-based; details: in words
Source text: as §1

gram-positive bacteria = assay: Antibacterial (growth-inhibitory) activity, gram-positive bacteria; format: cell-based; details: in words
Source text: as §1

[12] = Stability under basic conditions; format: physicochemical; details: in words

Nc1nc2c(ncn2[C@H]2C[C@H](O)[C@@H](CO)O2)c(=O)o1 [2'-deoxyoxanosine]
MIC [1]: > 100 µg/mL | MIC (Bacillus subtilis PCI219): > 100 µg/mL | MIC (Candida albicans 3147): > 100 µg/mL | MIC [2]: > 100 µg/mL | MIC (Escherichia coli K-12): 0.78 µg/mL (≈ 2.91 µM) | MIC (Escherichia coli ML1628): 3.12 µg/mL (≈ 11.6 µM) | MIC (Escherichia coli NIHJ): 12.5 µg/mL (≈ 46.6 µM) | MIC [3]: > 100 µg/mL | MIC (Microcuccus flavus FDA16): > 100 µg/mL | MIC (Mycobacterium 607): > 100 µg/mL | MIC [4]: 6.25 µg/mL (≈ 23.3 µM) | MIC (Proteus rettgeri GN311): 12.5 µg/mL (≈ 46.6 µM) | MIC (Proteus rettgeri GN466): 25 µg/mL (≈ 93.2 µM) | MIC (Proteus vulgaris OX19): < 0.2 µg/mL | MIC [5]: > 100 µg/mL | MIC [6]: > 100 µg/mL | MIC (Salmonella typhi T-63): > 100 µg/mL | MIC (Sarcina luteus PCI1001): > 100 µg/mL | MIC (Serratia marcescens): > 100 µg/mL | MIC [7]: 1.56 µg/mL (≈ 5.82 µM) | MIC [8]: 1.56 µg/mL (≈ 5.82 µM) | MIC (Shigella sonnei JS11746): 0.78 µg/mL (≈ 2.91 µM) | MIC [9]: > 100 µg/mL | MIC [10]: > 100 µg/mL | IC50 (leukemia L-1210 cells; Mus musculus, L1210, read-out: IC50, the concentration inhibiting growth in 50% of leukemia L-1210 cells): 0.15 µg/mL (≈ 0.559 µM) | inhibition of growth of leukemia L-1210 cells (leukemia L-1210 cells; in words): exhibited the action to inhibit the growth of leukemia L-1210 cells | LD50 [11]: 200 mg/kg | acute toxicity compared with known antibiotics similar in structure to nucleic acids (mice): lower toxicity than that of various known antibiotics similar in structure to nucleic acids | antibacterial / growth-inhibitory activity (gram-negative bacteria): relatively high growth-inhibitory activity | antibacterial / growth-inhibitory activity (gram-negative bacteria; listed as 2'-Deoxyoxanosine): excellent antibacterial activity against gram-negative bacteria | growth-inhibitory activity (gram-positive bacteria): did not show this activity against gram-positive bacteria | stability [12]: relatively unstable under basic conditions
